Measured values taken from patent publication US8309721B2, “HSP90 inhibitory carbazole derivatives, compositions containing same and use thereof” (Sanofi, priority 2008, dated 2012).
Counter-ions that a name gives are not always drawn. Like-named read-outs stand apart in the source and are kept apart here.

Legend:
Hsp82 = Hsp82 (Saccharomyces cerevisiae, UniProt P02829); test: Hsp82/ATPase test (malachite green or PK/LDH coupled method); type: biochemical
Experimental: The biochemical activity of the compounds can in particular be evaluated by means of the “Hsp82/ATPase” test described below: The inorganic phosphate released during the hydrolysis of ATP by the ATPase activity of Hsp82 is quantified by the malachite green method. In the presence of this reagent, formation of the inorganic phosphate-molybdate-malachite green complex, which absorbs at a wavelength of 620 nm, occurs. The products to be evaluated are incubated in a reaction volume of 30 μl, in the presence of 1 μM Hsp82 and of 250 μM of substrate (ATP) in a buffer composed of 50 mM Hepes-NaOH (pH 7.5), 1 mM DTT, 5 mM MgCl2 and 50 mM KCl at 37° C. for 60 min. In parallel, an inorganic phosphate range of between 1 and 40 μM is made up in the same buffer. […] After incubation at ambient temperature for 20 min, the absorbance of the various wells is measured using a microplate reader at 620 nm. The inorganic phosphate concentration of each sample is then calculated from the standard curve. The ATPase activity of Hsp82 is expressed as concentration of inorganic phosphate produced in 60 minutes. The effect of the various products tested is expressed as percentage inhibition of the ATPase activity. The formation of ADP due to the ATPase activity of Hsp82 was used to develop another method for evaluating the enzyme activity of this enzyme by application of an enzymatic coupling system involving pyruvate kinase (PK) and lactate dehydrogenase (LDH). In this kinetic-type spectrophotometric method, PK catalyses the formation of ATP and of pyruvate from phosphoenol pyruvate (PEP) and the ADP produced by Hsp82. The pyruvate formed, which is a substrate for LDH, is subsequently converted to lactate in the presence of NADH. In this case, the decrease in the NADH concentration, measured through the decrease in absorbance at the wavelength of 340 nm, is proportional to the concentration of ADP produced by Hsp82. The products tested are incubated in a reaction volume of 100 μl of buffer composed of 100 mM Hepes-NaOH (pH 7.5), 5 mM MgCl2, 1 mM DTT, 150 mM KCl, 0.3 mM NADH, 2.5 mM PEP and 250 μM ATP. This mixture is preincubated at 37° C. for 30 minutes before the addition of 3.77 units of LDH and 3.77 units of PK. The reaction is initiated by addition of the product to be evaluated, in varying concentrations, and of Hsp82, at the concentration of 1 μM. The enzymatic activity of Hsp82 is then measured continuously, in a microplate reader, at 37° C., at the wavelength of 340 nm. The initial rate of the reaction is obtained by measuring the slope of the tangent to the origin of the curve recorded. The enzymatic activity is expressed in μM of ADP formed per minute. The effect of the various products tested is expressed as percentage inhibition of the ATPase activity according to the codification below: […]

[1] = test system: Her2 receptor expression at the surface of SKBr3 cells; test: phenotypic SKBr3/HER2 cell test (Her2 surface expression by flow cytometry); type: cell-based; conditions: Homo sapiens, SK-BR-3, 24 h incubation, inhibition of Her2 expression
Summary of the method: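 SKBr3 cells (Her2-overexpressing adenocarcinoma) treated 24 h with compound at varying concentrations, then stained with PE-anti-Her2 antibody 30 min at 4° C; surface Her2 measured by flow cytometry. IC50 from nonlinear fit of % inhibition of Her2 expression versus concentration.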

[2] = 1 μM Hsp82, 250 μM ATP, 37° C., read-out: Hsp82 ATPase IC50

Sequence of Hsp82 (P02829 whole entry): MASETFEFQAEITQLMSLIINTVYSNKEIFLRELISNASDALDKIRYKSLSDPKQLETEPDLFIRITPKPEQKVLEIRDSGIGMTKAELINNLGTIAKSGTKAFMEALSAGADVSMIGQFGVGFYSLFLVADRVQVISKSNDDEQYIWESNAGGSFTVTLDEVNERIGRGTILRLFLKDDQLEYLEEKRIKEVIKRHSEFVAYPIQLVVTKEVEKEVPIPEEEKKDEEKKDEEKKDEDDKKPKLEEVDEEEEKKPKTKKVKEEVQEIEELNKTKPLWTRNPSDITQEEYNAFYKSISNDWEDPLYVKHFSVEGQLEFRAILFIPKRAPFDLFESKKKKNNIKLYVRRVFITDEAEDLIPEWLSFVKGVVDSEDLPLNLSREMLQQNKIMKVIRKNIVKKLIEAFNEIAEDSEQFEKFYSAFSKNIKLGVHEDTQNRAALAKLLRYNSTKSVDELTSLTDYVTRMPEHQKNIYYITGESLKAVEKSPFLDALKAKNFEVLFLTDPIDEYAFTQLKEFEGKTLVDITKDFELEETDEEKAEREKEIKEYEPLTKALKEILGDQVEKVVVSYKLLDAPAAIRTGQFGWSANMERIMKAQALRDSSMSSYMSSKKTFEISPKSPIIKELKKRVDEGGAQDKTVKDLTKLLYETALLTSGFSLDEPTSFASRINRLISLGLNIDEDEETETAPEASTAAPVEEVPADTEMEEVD

In the case of `COc1cncc(-c2cccc3c2c2ccccc2n3-c2ccc(C(N)=O)c(N[C@H]3CC[C@H](O)CC3)c2)c1` [Example 27, 2-[(4-trans-hydroxycyclohexyl)amino]-4-[4-(5-methoxypyridin-3-yl)-9H-carbazol-9-yl]benzamide], the IC50 (Hsp82; [2]) is reported as < 1000 nM, the IC50 [1] is reported as < 1000 nM and the melting point is reported as 263 °C.
In the case of `NC(=O)c1ccc(-c2cccc3c2c2ccccc2n3-c2ccc(C(N)=O)c(N[C@H]3CC[C@H](O)CC3)c2)cn1` [Example 28, 5-(9-{4-carbamoyl-3-[(4-trans-hydroxycyclohexyl)amino]phenyl}-9H-carbazol-4-yl)pyridine-2-carboxamide], the IC50 (Hsp82; [2]) is reported as 1000 to 10000 nM, the IC50 [1] is reported as < 1000 nM and the melting point is reported as > 260 °C.
In the case of `N#Cc1ccc(-c2cccc3c2c2ccccc2n3-c2ccc(C(N)=O)c(N[C@H]3CC[C@H](O)CC3)c2)cn1` [Example 49, 4-[4-(6-cyanopyridin-3-yl)-9H-carbazol-9-yl]-2-[(4-trans-hydroxycyclohexyl)amino]benzamide], the IC50 (Hsp82; [2]) is reported as < 1000 nM, the IC50 [1] is reported as < 1000 nM and the melting point is reported as 274 °C.
For `NC(=O)c1ccc(-n2c3ccccc3c3c(-c4nc5ccc(F)cc5[nH]4)cccc32)cc1NCc1ccn[nH]1` [Example 51, 4-[4-(6-fluoro-1H-benzimidazol-2-yl)-9H-carbazol-9-yl]-2-[(2H-pyrazol-3-ylmethyl)amino]benzamide], the IC50 (Hsp82; [2]) was 1000 to 10000 nM and the IC50 [1] was < 1000 nM.
With `NC(=O)c1ccc(-n2c3ccccc3c3c(-c4nc5ccc(F)cc5[nH]4)cccc32)cc1NC(CO)CO` [Example 52, 4-[4-(6-fluoro-1H-benzimidazol-2-yl)-9H-carbazol-9-yl]-2-(2-hydroxy-1-hydroxymethylethylamino)benzamide] the IC50 (Hsp82; [2]) was < 1000 nM and the IC50 [1] was < 1000 nM.
With `NCC(CO)Oc1cc(-n2c3ccccc3c3c(-c4nc5ccc(F)cc5[nH]4)cccc32)ccc1C(N)=O` (centres unmarked) [Example 53, 2-(2-amino-1-hydroxymethylethyloxy)-4-[4-(6-fluoro-1H-benzimidazol-2-yl)-9H-carbazol-9-yl]benzamide] the IC50 (Hsp82; [2]) was 1000 to 10000 nM and the IC50 [1] was 1000 to 10000 nM.
With `COC[C@H](C)Nc1cc(-n2c3ccccc3c3c(-c4nc5ccc(F)cc5[nH]4)cccc32)ccc1C(N)=O` [Example 54] the IC50 (Hsp82; [2]) was < 1000 nM and the IC50 [1] was < 1000 nM.
With `NC(=O)c1ccc(-n2c3ccccc3c3c(-c4cnc(N)nc4)cccc32)cc1N[C@H]1CC[C@H](O)CC1` [Example 55, 4-[4-(2-aminopyrimidin-5-yl)-9H-carbazol-9-yl]-2-[(4-trans-hydroxycyclohexyl)amino]benzamide hydrochloride] the IC50 (Hsp82; [2]) was < 1000 nM and the IC50 [1] was < 1000 nM.
In the case of `NC(=O)c1ccc(-n2c3ccccc3c3c(-c4nc5ccc(F)cc5[nH]4)cccc32)cc1NCc1c[nH]cn1` [Example 57, 4-[4-(6-fluoro-1H-benzimidazol-2-yl)-9H-carbazol-9-yl]-2-[(1H-imidazoly-4-yl)methylamino]benzamide], the IC50 (Hsp82; [2]) is reported as 1000 to 10000 nM and the IC50 [1] is reported as 1000 to 10000 nM.
In the case of `NC(=O)c1ncc(-n2c3ccccc3c3c(-c4cnc5ccccc5c4)cccc32)cc1N[C@H]1CC[C@H](O)CC1` [Example 58, 3-(4-trans-hydroxycyclohexylamino)-5-[(4-quinolin-3-yl)-9H-carbazol-9-yl]pyridine-2-carboxamide], the IC50 (Hsp82; [2]) is reported as < 1000 nM and the IC50 [1] is reported as < 1000 nM.
In the case of `NC(=O)c1ccc(-n2c3ccccc3c3c(-c4nc5ccc(F)cc5[nH]4)cccc32)cc1NC1CCOCC1` [Example 59, 4-[4-(6-fluoro-1H-benzimidazol-2-yl)-9H-carbazol-9-yl]-2-(tetrahydropyran-4-ylamino)benzamide], the IC50 (Hsp82; [2]) is reported as < 1000 nM and the IC50 [1] is reported as < 1000 nM.
For `CC(C)(O)CCNc1cc(-n2c3ccccc3c3c(-c4nc5ccc(F)cc5[nH]4)cccc32)ccc1C(N)=O` [Example 61, 4-[4-(6-fluoro-1H-benzimidazol-2-yl)-9H-carbazol-9-yl]-2-(3-hydroxy-3-methylbutylamino)benzamide], the IC50 (Hsp82; [2]) was 1000 to 10000 nM and the IC50 [1] was < 1000 nM.
For `NC(=O)c1ccc(-n2c3ccccc3c3c(-c4nc5ccc(F)cc5[nH]4)cccc32)cc1NCCF` [Example 62, 4-[4-(6-fluoro-1H-benzimidazol-2-yl)-9H-carbazol-9-yl]-2-(2-fluoroethylamino)benzamide], the IC50 (Hsp82; [2]) was < 1000 nM and the IC50 [1] was < 1000 nM.
For `NC(=O)c1ccc(-n2c3ccccc3c3c(-c4cnc5ccccc5c4)cccc32)cc1NCCC1(O)CCCC1` [Example 64], the IC50 (Hsp82; [2]) was < 1000 nM and the IC50 [1] was < 1000 nM.
In the case of `CN1CCC(O)(CCNc2cc(-n3c4ccccc4c4c(-c5cnc6ccccc6c5)cccc43)ccc2C(N)=O)CC1` [Example 65, 2-[2-(4-hydroxy-1-methylpiperidin-4-yl)ethylamino]-4-[4-(quinolin-3-yl)-9H-carbazol-9-yl]benzamide], the IC50 (Hsp82; [2]) is reported as < 1000 nM and the IC50 [1] is reported as < 1000 nM.
With `COc1cncc(-c2cccc3c2c2ccccc2n3-c2ccc(C(N)=O)c(NCCCO)c2)c1` [Example 66, 2-[(3-hydroxypropyl)amino]-4-[4-(5-methoxypyridin-3-yl)-9H-carbazol-9-yl]benzamide] the IC50 (Hsp82; [2]) was < 1000 nM, the IC50 [1] was 1000 to 10000 nM and the melting point was 198 °C.
Compound `NC(=O)c1ccc(-n2c3ccccc3c3c(-c4cncc(OCc5ccccc5)c4)cccc32)cc1N[C@H]1CC[C@H](O)CC1` [Example 67, 4-{4-[5-(benzyloxy)pyridin-3-yl]-9H-carbazol-9-yl}-2-[(4-trans-hydroxycyclohexyl)amino]benzamide] has an IC50 (Hsp82; [2]) of 1000 to 10000 nM and an IC50 [1] of 1000 to 10000 nM.
`NC(=O)c1ccc(-n2c3ccccc3c3c(-c4cncc(OCc5ccccc5)c4)cccc32)cc1NCCCO` [Example 68, 4-{4-[5-(benzyloxy)pyridin-3-yl]-9H-carbazol-9-yl}-2-[(3-hydroxypropyl)amino]benzamide] showed an IC50 (Hsp82; [2]) of 1000 to 10000 nM, an IC50 [1] of 1000 to 10000 nM and a melting point of 168 °C.
In the case of `NC(=O)c1ccc(-n2c3ccccc3c3c(-c4ccc(C(F)(F)F)nc4)cccc32)cc1NCCCO` [Example 69, 2-[(3-hydroxypropyl)amino]-4-{4-[6-(trifluoromethyl)pyridin-3-yl]-9H-carbazol-9-yl}benzamide], the IC50 (Hsp82; [2]) is reported as 1000 to 10000 nM, the IC50 [1] is reported as 1000 to 10000 nM and the melting point is reported as 180 °C.
With `N#Cc1ccc(-c2cccc3c2c2ccccc2n3-c2ccc(C(N)=O)c(NCCCO)c2)cn1` [Example 112, 4-[4-(6-cyanopyridin-3-yl)-9H-carbazol-9-yl]-2-[(3-hydroxypropyl)amino]benzamide] the IC50 [1] was < 1000 nM and the melting point was 204 °C.
In the case of `N#Cc1ccc(-c2cccc3c2c2ccccc2n3-c2ccc(C(N)=O)c(NC3CCOCC3)c2)cn1` [Example 126, 4-[4-(6-cyanopyridin-3-yl)-9H-carbazol-9-yl]-2-(tetrahydro-2H-pyran-4-ylamino)benzamide], the IC50 [1] is reported as < 1000 nM and the melting point is reported as 256 °C.
For `CN1C2CCC1CC(Nc1cc(-n3c4ccccc4c4c(-c5cnc6ccccc6c5)cccc43)ccc1C(N)=O)C2` (centres unmarked) [Example 138, 2-(8-methyl-8-azabicyclo[3.2.1]oct-3-yl)amino-4-[4-(quinolin-3-yl)-9H-carbazol-9-yl]benzamide], the IC50 (Hsp82) was < 1000 nM and the IC50 [1] was < 1000 nM.
